PubChem BioAssay AID328 (DTP/NCI, 2004)
Where “and” joins values, the source holds several entries; their conditions need not be identical. Identical values can stand only once. Toxic doses and inconclusive results are not listed. Rule for the calls: active = survival T/C of 150% or more; inactive = T/C below 125% in these data.

System: BDF1 mice, P388 leukemia ip, median survival T/C
Experiment: NCI In Vivo Anticancer Drug Screen. Data for tumor model P388 Leukemia (intraperitoneal) in B6D2F1 (BDF1) mice
Conditions: endpoint: median survival time, higher = longer survival
Summary of the method: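 T/C = treated-group survival ÷ vehicle-control survival; tumour transplanted into mice before dosing.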

[1] = dose: 100.0 mg/kg/injection, schedule: Q01DX009 (ip), vehicle: saline with Tween-80
[2] = dose: 100.0 mg/kg/injection, schedule: Q04DX003 (ip), vehicle: saline with Tween-80
[3] = dose: 200.0 mg/kg/injection, schedule: Q01DX009 (ip), vehicle: saline with Tween-80
[4] = dose: 200.0 mg/kg/injection, schedule: Q04DX003 (ip), vehicle: saline with Tween-80
[5] = dose: 400.0 mg/kg/injection, schedule: Q04DX003 (ip), vehicle: saline with Tween-80
[6] = dose: 100.0 mg/kg/injection, schedule: Q04DX003 (ip), vehicle: Klucel (hydroxypropylcellulose) (HPC)
[7] = dose: 200.0 mg/kg/injection, schedule: Q04DX003 (ip), vehicle: Klucel (hydroxypropylcellulose) (HPC)
[8] = dose: 25.0 mg/kg/injection, schedule: Q01DX009 (ip), vehicle: Klucel (hydroxypropylcellulose) (HPC)
[9] = dose: 50.0 mg/kg/injection, schedule: Q01DX009 (ip), vehicle: Klucel (hydroxypropylcellulose) (HPC)
[10] = dose: 100.0 mg/kg/injection, schedule: Q01DX009 (ip), vehicle: Klucel (hydroxypropylcellulose) (HPC)
[11] = dose: 50.0 mg/kg/injection, schedule: Q01DX005 (ip), vehicle: saline with Tween-80
[12] = dose: 100.0 mg/kg/injection, schedule: Q01DX005 (ip), vehicle: saline with Tween-80
[13] = dose: 400.0 mg/kg/injection, schedule: Q01DX009 (ip), vehicle: saline with Tween-80
[14] = dose: 50.0 mg/kg/injection, schedule: Q01DX009 (ip), vehicle: saline with Tween-80
[15] = dose: 100.0 mg/kg/injection, schedule: Q04DX003 (ip), vehicle: saline
[16] = dose: 12.5 mg/kg/injection, schedule: Q01DX009 (ip), vehicle: saline with Tween-80
[17] = dose: 25.0 mg/kg/injection, schedule: Q01DX009 (ip), vehicle: saline with Tween-80
[18] = dose: 25.0 mg/kg/injection, schedule: Q04DX003 (ip), vehicle: saline with Tween-80
[19] = dose: 50.0 mg/kg/injection, schedule: Q04DX003 (ip), vehicle: saline with Tween-80
[20] = dose: 25.0 mg/kg/injection, schedule: Q01DX001 (ip), vehicle: saline with Tween-80
[21] = dose: 50.0 mg/kg/injection, schedule: Q01DX001 (ip), vehicle: saline with Tween-80
[22] = dose: 50.0 mg/kg/injection, schedule: Q04DX003 (ip), vehicle: Klucel (hydroxypropylcellulose) (HPC)
[23] = dose: 200.0 mg/kg/injection, schedule: Q01DX009 (ip), vehicle: Klucel (hydroxypropylcellulose) (HPC)

Measured: T/C

C/C(=N\NC(=O)CC(=O)N/N=C(\C)c1ccccc1)c1ccccc1
inactive: dose: 75.0 mg/kg/injection, schedule: Q01DX009 (ip), vehicle: saline with Tween-80 91 % of control | dose: 150.0 mg/kg/injection, schedule: Q01DX009 (ip), vehicle: saline with Tween-80 99 % of control | dose: 300.0 mg/kg/injection, schedule: Q01DX009 (ip), vehicle: saline with Tween-80 90 % of control

Cc1ccc(C)c(CCCC(=O)O)c1
inactive: [1] 95 % of control | [2] 100 % of control | [3] 109 % of control | [4] 104 % of control | [5] 108 % of control

COc1cc2ccc3c(c2cc1OC)CN(Cc1ccccc1)CC3
inactive: [6] 100 % of control | [7] 109 % of control | dose: 400.0 mg/kg/injection, schedule: Q04DX003 (ip), vehicle: Klucel (hydroxypropylcellulose) (HPC) 100 % of control

O=C(C[n+]1cc2ccccc2c2ccccc21)c1ccccc1
inactive: [8] 104 % of control | dose: 35.0 mg/kg/injection, schedule: Q01DX009 (ip), vehicle: Klucel (hydroxypropylcellulose) (HPC) 100 % of control and 108 % of control | [9] 100 % of control and 120 % of control | dose: 75.0 mg/kg/injection, schedule: Q01DX009 (ip), vehicle: Klucel (hydroxypropylcellulose) (HPC) 115 % of control | [10] 114 % of control

CCN(CC)C(=S)Oc1cc(C)nc(N2CCCC2)n1
inactive: [11] 95 % of control | [12] 101 % of control | dose: 200.0 mg/kg/injection, schedule: Q01DX005 (ip), vehicle: saline with Tween-80 97 % of control

O=C1OC(c2ccc(O)cc2)(c2ccc(Oc3ccccc3)cc2)c2ccccc21 (stereo unspecified)
inactive: [1] 97 % of control | [3] 105 % of control | [13] 99 % of control

O=C1NNCc2c1oc1ccccc21
inactive: [14] 96 % of control | [1] 114 % of control | [3] 90 % of control

O=C(Cn1ccc(=O)[nH]c1=O)c1ccc(Cl)s1
inactive: [1] 101 % of control and 112 % of control | [3] 102 % of control and 105 % of control | [13] 101 % of control and 115 % of control

CC(=O)OCC(=O)[C@@]1(O)CC[C@H]2[C@@H]3CCC4=CC(=O)C=C[C@]4(C)[C@H]3[C@@H](O)C[C@@]21C
inactive: dose: 25.0 mg/kg/injection, schedule: Q01DX009 (ip), vehicle: saline 91 % of control | dose: 50.0 mg/kg/injection, schedule: Q01DX009 (ip), vehicle: saline 91 % of control | [15] 109 % of control

Cc1ccc(S)cc1
inactive: [16] 104 % of control | [17] 95 % of control | [18] 100 % of control | [14] 108 % of control | [19] 91 % of control

CC(=O)Nc1c(Cl)cc2c(c1Cl)Cc1cc(N=Cc3ccc4c(c3)OCO4)ccc1-2
inactive: [8] 90 % of control | [9] 90 % of control | [10] 86 % of control

CCOC(=O)c1cnn2c(SC)ncnc12
inactive: [16] 99 % of control | [17] 111 % of control | [18] 109 % of control | [14] 101 % of control | [19] 100 % of control | [1] 99 % of control | [2] 109 % of control

N#CC(/C=C/c1ccccc1)Nc1ccccc1C(N)=O (stereo unspecified)
inactive: [20] 109 % of control | [21] 104 % of control | dose: 100.0 mg/kg/injection, schedule: Q01DX001 (ip), vehicle: saline with Tween-80 100 % of control

CCOC(=O)Nc1nc2ccccc2[nH]1
inactive: dose: 6.25 mg/kg/injection, schedule: Q01DX009 (ip), vehicle: saline with Tween-80 98 % of control | [16] 116 % of control | [17] 109 % of control | [14] 105 % of control

CC(=O)c1ccc2c(c1)[nH]c1ccccc12
inactive: [2] 100 % of control | [4] 86 % of control | [5] 95 % of control

C1=C(c2ccccc2)CS1
inactive: [20] 104 % of control | [21] 101 % of control

NC(=S)c1cncnc1N
inactive: [2] 91 % of control

CN(C)c1ccc(P(c2ccc(N(C)C)cc2)c2ccc(N(C)C)cc2)cc1
inactive: dose: 3.12 mg/kg/injection, schedule: Q01DX009 (ip), vehicle: Klucel (hydroxypropylcellulose) (HPC) 96 % of control | dose: 6.25 mg/kg/injection, schedule: Q01DX009 (ip), vehicle: Klucel (hydroxypropylcellulose) (HPC) 88 % of control | dose: 12.5 mg/kg/injection, schedule: Q01DX009 (ip), vehicle: Klucel (hydroxypropylcellulose) (HPC) 88 % of control | dose: 12.5 mg/kg/injection, schedule: Q04DX003 (ip), vehicle: Klucel (hydroxypropylcellulose) (HPC) 91 % of control | dose: 25.0 mg/kg/injection, schedule: Q04DX003 (ip), vehicle: Klucel (hydroxypropylcellulose) (HPC) 113 % of control | [22] 86 % of control

CCOn1nnc2cc(Cl)ccc21
inactive: [2] 113 % of control | [4] 113 % of control | [5] 106 % of control

CCOC(=O)/C(C#N)=C/N(C)Cc1ccccc1
inactive: [14] 108 % of control | [1] 105 % of control

O=C(O)c1cc([N+](=O)[O-])cc([N+](=O)[O-])c1 (tested in a mixture with another compound)
inactive: dose: 3.13 mg/kg/injection, schedule: Q04DX002 (ip), vehicle: saline with Tween-80 100 % of control | dose: 6.25 mg/kg/injection, schedule: Q04DX002 (ip), vehicle: saline with Tween-80 108 % of control | dose: 12.5 mg/kg/injection, schedule: Q04DX002 (ip), vehicle: saline with Tween-80 104 % of control | dose: 25.0 mg/kg/injection, schedule: Q04DX002 (ip), vehicle: saline with Tween-80 112 % of control

CS(=O)(=O)ON1C(=O)c2ccccc2C1=O
inactive: [15] 120 % of control

O=C1Oc2ccccc2C(=O)/C1=C1\SSC(c2ccccc2)=C1c1ccccc1
inactive: [14] 99 % of control | [1] 96 % of control | [3] 96 % of control

O=C(/C=N/O)c1ccccc1
inactive: dose: 50.0 mg/kg/injection, schedule: Q04DX003 (ip), vehicle: gum acacia 100 % of control | dose: 100.0 mg/kg/injection, schedule: Q04DX003 (ip), vehicle: gum acacia 96 % of control | dose: 200.0 mg/kg/injection, schedule: Q04DX003 (ip), vehicle: gum acacia 96 % of control

CCCN1CCC2(CC1)COCc1ccccc12
inactive: dose: 50.0 mg/kg/injection, schedule: Q04DX002 (ip), vehicle: saline with Tween-80 98 % of control | dose: 100.0 mg/kg/injection, schedule: Q04DX002 (ip), vehicle: saline with Tween-80 91 % of control

COc1cc(N=Nc2ccc(O)c3ncccc23)c(OC)cc1N=Nc1ccc([N+](=O)[O-])cc1
inactive: [11] 101 % of control | [12] 111 % of control

CCCCCCCCC(=O)N1CC1
inactive: [9] 95 % of control | [10] 118 % of control | [6] 109 % of control | [23] 86 % of control | [7] 113 % of control

C=C(C)C1CC2(C)C(C)CC(O)CC2C(OC(=O)C=C(C)C)C1O (stereo unspecified)
inactive: dose: 0.75 mg/kg/injection, schedule: Q01DX009 (ip), vehicle: saline 94 % of control | dose: 1.5 mg/kg/injection, schedule: Q01DX009 (ip), vehicle: saline 94 % of control | dose: 3.0 mg/kg/injection, schedule: Q01DX009 (ip), vehicle: saline 103 % of control | dose: 6.0 mg/kg/injection, schedule: Q01DX009 (ip), vehicle: saline 89 % of control

CC(N)COCc1ccccc1 (stereo unspecified)
inactive: dose: 25.0 mg/kg/injection, schedule: Q04DX003 (ip), vehicle: saline 104 % of control | dose: 50.0 mg/kg/injection, schedule: Q04DX003 (ip), vehicle: saline 95 % of control

Oc1ccc(C2CCCCC2)c(O)c1
inactive: [9] 100 % of control | [22] 91 % of control | [10] 104 % of control | [23] 100 % of control | [7] 91 % of control
